According to patent US20240317735A1, “HYDROISOQUINOLINE OR HYDRONAPHTHYRIDINE COMPOUNDS FOR THE TREATMENT OF AUTOIMMUNE DISEASE” (Hoffmann-La Roche Inc., priority 2020, published 2024):

Columns and labels:
[1] = target: T1, human TLR8 (Homo sapiens, UniProt Q9NR97); experiment: HEK293-Blue-hTLR-8 cells assay (SEAP reporter, R848 stimulation); assay type: cell-based; conditions: HEK293-Blue-hTLR8 cells, R848, 20 hrs; read-out: HEK/hTLR8 IC50
T1 construct: host or cells: HEK293 (HEK-Blue hTLR8)
T1 sequence (Q9NR97 27-1041): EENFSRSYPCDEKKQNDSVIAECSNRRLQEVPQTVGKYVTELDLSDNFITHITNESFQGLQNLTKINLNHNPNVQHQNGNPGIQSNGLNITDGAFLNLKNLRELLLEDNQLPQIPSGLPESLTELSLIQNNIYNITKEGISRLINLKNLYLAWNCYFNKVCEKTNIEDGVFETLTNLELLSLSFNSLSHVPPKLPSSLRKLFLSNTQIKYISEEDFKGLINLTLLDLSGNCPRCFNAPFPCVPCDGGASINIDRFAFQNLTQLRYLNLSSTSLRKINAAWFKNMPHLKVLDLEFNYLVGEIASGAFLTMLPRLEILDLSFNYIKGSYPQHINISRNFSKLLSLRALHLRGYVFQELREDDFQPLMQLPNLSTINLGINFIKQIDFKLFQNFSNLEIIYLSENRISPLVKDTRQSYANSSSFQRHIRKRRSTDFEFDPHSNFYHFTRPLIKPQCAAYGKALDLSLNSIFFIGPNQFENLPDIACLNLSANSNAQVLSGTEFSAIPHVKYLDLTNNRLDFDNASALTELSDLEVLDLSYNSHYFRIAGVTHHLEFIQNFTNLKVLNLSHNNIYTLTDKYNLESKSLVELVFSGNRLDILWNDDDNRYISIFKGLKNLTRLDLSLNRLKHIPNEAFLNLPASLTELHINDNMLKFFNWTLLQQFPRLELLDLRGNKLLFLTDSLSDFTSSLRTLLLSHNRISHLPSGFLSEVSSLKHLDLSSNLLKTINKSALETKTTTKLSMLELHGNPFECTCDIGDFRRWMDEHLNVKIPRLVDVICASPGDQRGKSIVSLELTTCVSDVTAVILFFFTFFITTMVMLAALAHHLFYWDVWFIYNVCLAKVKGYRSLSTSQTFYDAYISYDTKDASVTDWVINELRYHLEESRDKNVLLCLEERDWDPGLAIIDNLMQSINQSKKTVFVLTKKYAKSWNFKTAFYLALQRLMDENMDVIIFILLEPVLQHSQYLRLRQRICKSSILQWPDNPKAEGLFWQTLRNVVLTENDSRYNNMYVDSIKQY
Method: The following tests were carried out in order to determine the activity of the compounds of formula (I) and (Ia) in HEK293-Blue-hTLR-7/8/9 cells assay.
A stable HEK293-Blue-hTLR-8 cell line was purchased from InvivoGen (Cat. #: hkb-htlr8, San Diego, California, USA). These cells were originally designed for studying the stimulation of human TLR8 by monitoring the activation of NF-κB. A SEAP (secreted embryonic alkaline phosphatase) reporter gene was placed under the control of the IFN-β minimal promoter fused to five NF-κB and AP-1-binding sites. The SEAP was induced by activating NF-κB and AP-1 via stimulating HEK-Blue hTLR8 cells with TLR8 ligands. Therefore the reporter expression was declined by TLR8 antagonist under the stimulation of a ligand, such as R848, for incubation of 20 hrs. The cell culture supernatant SEAP reporter activity was determined using QUANTI-Blue™ kit (Cat. #: rep-qb1, Invivogen, San Diego, Ca, USA) at a wavelength of 640 nm, a detection medium that turns purple or blue in the presence of alkaline phosphatase.
HEK293-Blue-hTLR8 cells were incubated at a density of 250,000˜450,000 cells/mL in a volume of 170 μL in a 96-well plate in Dulbecco's Modified Eagle's medium (DMEM) containing 4.5 g/L glucose, […] penicillin, […], […] Normocin, 2 mM L-glutamine, 10% (v/v) heat-inactivated fetal bovine serum with addition of 20 μL test compound in a serial dilution in the presence of final DMSO at 1% and 10 μL of 60 uM R848 in above DMEM, perform incubation under 37° C. in a C02 incubator for 20 hrs. Then 20 μL of the supernatant from each well was incubated with 180 μL Quanti-blue substrate solution at 37° C. for 2 hrs and the absorbance was read at 620-655 nm using a spectrophotometer. The signaling pathway that TLR8 activation leads to downstream NF-κB activation has been widely accepted, and therefore similar reporter assay was modified for evaluating TLR8 antagonist.

[2] = Human microsome stability assay; assay type: in vitro ADME; conditions: 1 μM test compound, 0.5 mg/mL liver microsomal protein, 37° C., pH 7.4
Method: The human microsomal stability assay is used for early assessment of metabolic stability of a test compound in human liver microsomes.
Human liver microsomes (Cat. NO.: 452117, Corning, USA; Cat. NO.: H2610, Xenotech, USA) were preincubated with test compound for 10 minutes at 37° C. in 100 mM potassium phosphate buffer, pH 7.4. The reactions were initiated by adding NADPH regenerating system. The final incubation mixtures contained 1 μM test compound, 0.5 mg/mL liver microsomal protein, 1 mM MgCl2, 1 mM NADP, 1 unit/mL isocitric dehydrogenase and 6 mM isocitric acid in 100 mM potassium phosphate buffer, pH 7.4. After incubation times of 0, 3, 6, 9, 15 and 30 minutes at 37° C., 300 μL of cold acetonitrile (including internal standard) was added to 100 μL incubation mixture to terminate the reaction. Following precipitation and centrifugation, the amount of compound remaining in the samples were determined by LC-MS/MS. Controls of no NADPH regenerating system at zero and 30 minutes were also prepared and analyzed.

IC50 [1] [nM]	Clearance of Human microsome [2] [L/h/kg]	Compound
7	0.372	C[C@H]1CN(c2ccnc3c2cnn3C)Cc2ccc(OCCN3CCNCC3)cc21 [Example 40, (4R)-4-methyl-2-(1-methylpyrazolo[3,4-b]pyridin-4-yl)-6-(2-piperazin-1-ylethoxy)-3,4-dihydro-1H-isoquinoline]
8	0.372	C[C@H]1CN(c2ccnc3c2cnn3C)Cc2ccc(OC3CN(C4CCNCC4)C3)cc21 [Example 41, (4R)-4-methyl-2-(1-methylpyrazolo[3,4-b]pyridin-4-yl)-6-[1-(4-piperidyl)azetidin-3-yl]oxy-3,4-dihydro-1H-isoquinoline]
2	0.408	C[C@H]1CN(c2ccnc3c2cnn3C)Cc2ccc(O[C@@H]3C[C@H]4CNCCN4C3)cc21 [Example 42, (4R)-4-methyl-2-(1-methylpyrazolo[3,4-b]pyridin-4-yl)-6-[[(7R,8aS)-1,2,3,4,6,7,8,8a-octahydropyrrolo[1,2-a]pyrazin-7-yl]oxy]-3,4-dihydro-1H-isoquinoline]
2	0.372	C[C@H]1CN(c2ccnc3c2cnn3C)Cc2ccc(OC[C@H]3CNCCN3C)cc21 [Example 43, (4R)-4-methyl-2-(1-methylpyrazolo[3,4-b]pyridin-4-yl)-6-[[(2R)-1-methylpiperazin-2-yl]methoxy]-3,4-dihydro-1H-isoquinoline]
10	0.624	C[C@H]1CN(c2ccnc3c2cnn3C)Cc2ccc(OC[C@@H]3CNCCN3C=O)cc21 [Example 45, (2S)-2-[[(4R)-4-methyl-2-(1-methylpyrazolo[3,4-b]pyridin-4-yl)-3,4-dihydro-1H-isoquinolin-6-yl]oxymethyl]piperazine-1-carbaldehyde]
7	0.372	C[C@H]1CN(c2ccnc3c2cnn3C)Cc2ccc(N3C[C@@H](N)[C@H](O)C3)cc21 [Example 46, trans-4-amino-1-[(4R)-4-methyl-2-(1-methylpyrazolo[3,4-b]pyridin-4-yl)-3,4-dihydro-1H-isoquinolin-6-yl]pyrrolidin-3-ol]
3	0.372	Cc1cc(N2Cc3ccc(N4C[C@@H](N)[C@H](O)C4)cc3[C@@H](C)C2)c2cnn(C)c2n1 [Example 47, trans-4-amino-1-[(4R)-2-(1,6-dimethylpyrazolo[3,4-b]pyridin-4-yl)-4-methyl-3,4-dihydro-1H-isoquinolin-6-yl]pyrrolidin-3-ol]
6	0.432	Cc1cc(N2Cc3ccc(N4CC5(CNCCO5)C4)cc3[C@@H](C)C2)c2cnn(C)c2n1 [Example 48, 2-[(4R)-2-(1,6-dimethylpyrazolo[3,4-b]pyridin-4-yl)-4-methyl-3,4-dihydro-1H-isoquinolin-6-yl]-5-oxa-2,8-diazaspiro[3.5]nonane]

Continued, compound first:

Compound	IC50 [1] [nM]	Clearance of Human microsome [2] [L/h/kg]
C[C@H]1CN(c2ccnc3c2cnn3C)Cc2ccc(N3CC4(CCNCC4)OC3=O)cc21 [Example 26, 3-[(4R)-4-methyl-2-(1-methylpyrazolo[3,4-b]pyridin-4-yl)-3,4-dihydro-1H-isoquinolin-6-yl]-1-oxa-3,8-diazaspiro[4.5]decan-2-one]	10	0.372
C[C@H]1CN(c2ccnc3c2cnn3C)Cc2ccc(N3C4CCC3CNC4)cc21 [Example 27, (4R)-6-(3,8-diazabicyclo[3.2.1]octan-8-yl)-4-methyl-2-(1-methylpyrazolo[3,4-b]pyridin-4-yl)-3,4-dihydro-1H-isoquinoline]	3	0.372
C[C@H]1CN(c2ccnc3c2cnn3C)Cc2ccc(N3CCC(N4CC(N)C4)CC3)cc21 [Example 28, 1-[1-[(4R)-4-methyl-2-(1-methylpyrazolo[3,4-b]pyridin-4-yl)-3,4-dihydro-1H-isoquinolin-6-yl]-4-piperidyl]azetidin-3-amine]	< 0.3	0.372
C[C@H]1CN(c2ccnc3c2cnn3C)Cc2ccc(N3CCC(N4CC[C@@H](N)[C@H](O)C4)CC3)cc21 [Example 29, trans-4-amino-1-[1-[(4R)-4-methyl-2-(1-methylpyrazolo[3,4-b]pyridin-4-yl)-3,4-dihydro-1H-isoquinolin-6-yl]-4-piperidyl]piperidin-3-ol]	2	0.582
Cc1cc(N2Cc3ccc(OC[C@@H]4CNCCN4)cc3[C@@H](C)C2)c2cnn(C)c2n1 [Example 31, (4R)-2-(1,6-dimethylpyrazolo[3,4-b]pyridin-4-yl)-4-methyl-6-[[(2S)-piperazin-2-yl]methoxy]-3,4-dihydro-1H-isoquinoline]	2	0.474
C[C@H]1CN(c2ccnc3c2cnn3C)Cc2ccc(N3CC4(CNC4)CC3=O)cc21 [Example 34, 6-[(4R)-4-methyl-2-(1-methylpyrazolo[3,4-b]pyridin-4-yl)-3,4-dihydro-1H-isoquinolin-6-yl]-2,6-diazaspiro[3.4]octan-7-one]	26	0.606
C[C@H]1CN(c2ccnc3c2cnn3C)Cc2ccc(N3CC4(CCNC4)OC3=O)cc21 (stereo partly drawn) [Example 35, 3-[(4R)-4-methyl-2-(1-methylpyrazolo[3,4-b]pyridin-4-yl)-3,4-dihydro-1H-isoquinolin-6-yl]-1-oxa-3,7-diazaspiro[4.4]nonan-2-one]	14	0.504
C[C@H]1CN(c2ccnc3c2cnn3C)Cc2ccc(N3CCN(Cc4cn(C)cn4)CC3)cc21 [Example 37, (4R)-4-methyl-6-[4-[(1-methylimidazol-4-yl)methyl]piperazin-1-yl]-2-(1-methylpyrazolo[3,4-b]pyridin-4-yl)-3,4-dihydro-1H-isoquinoline]	5	0.492
C[C@H]1CN(c2ccnc3c2cnn3C)Cc2ccc(N3CCN(CCN(C)C)CC3)cc21 [Example 38, N,N-dimethyl-2-[4-[(4R)-4-methyl-2-(1-methylpyrazolo[3,4-b]pyridin-4-yl)-3,4-dihydro-1H-isoquinolin-6-yl]piperazin-1-yl]ethanamine]	< 0.3	0.372
